According to patent EP3046573B1, “AMYLIN ANALOGUES” (Zealand Pharma A/S, priority 2013, dated 2015):
pEC50: −log10 of the molar value. Numbered stars: 1 amine (or outer) side, 2 acyl side, 3 side chain; on linkers, the order of the positions; unused ones are H or OH. Bridge positions count the residues as written; N and C are the ends. Square brackets hold non-standard residues; d marks the D form. Peptide text beside a SMILES is read from it. * marks the point of attachment. C20 diacid = O=C(O)CCCCCCCCCCCCCCCCCCC(=O)*; γGlu = O=C(O)[C@H](CCC(=O)[*:2])N[*:1]; NMeI = CC[C@H](C)[C@H](NC)C(=O)O; Sar = CNCC(=O)O

Experiments:
[1] = target: T1, human calcitonin receptor (hCTR2) (Homo sapiens, UniProt P30988); experiment: hCTR2 assay: induction of cAMP (AlphaScreen cAMP Assay kit) in COS7 cells expressing hCTR2; type: cell-based; details: cAMP induction in COS7 cells expressing hCTR2; average of a minimum of 3 determinations; read-out: hCTR2 EC50
T1 construct: expressed in transfected cells
T1 sequence (P30988 25-474): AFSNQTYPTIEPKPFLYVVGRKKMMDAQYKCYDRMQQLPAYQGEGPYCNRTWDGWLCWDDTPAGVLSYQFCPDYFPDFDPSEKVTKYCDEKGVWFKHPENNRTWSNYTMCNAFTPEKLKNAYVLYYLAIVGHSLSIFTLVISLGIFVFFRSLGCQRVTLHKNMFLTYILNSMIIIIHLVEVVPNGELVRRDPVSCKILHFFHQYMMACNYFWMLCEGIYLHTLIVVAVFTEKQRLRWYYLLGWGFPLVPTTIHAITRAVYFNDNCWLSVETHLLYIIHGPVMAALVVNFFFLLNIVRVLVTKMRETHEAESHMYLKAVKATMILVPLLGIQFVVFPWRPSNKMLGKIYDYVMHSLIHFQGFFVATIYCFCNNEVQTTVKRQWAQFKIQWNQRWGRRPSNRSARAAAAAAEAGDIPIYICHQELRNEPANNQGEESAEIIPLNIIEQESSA
In short: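 cAMP read-out by AlphaScreen after cell lysis; EC50 and % efficacy vs pramlintide from 4-parameter logistic fitting. Agonist stimulation: hCTR2-COS7 stable cells, 15 min, 37° C, 100 µM IBMX, 0.1% casein, Tyrode/HEPES pH 7.4.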

[2] = Solubility assessment (turbidity absorbance at 325 nm); type: physicochemical; details: stock 2 mg/ml diluted 1:1, ambient temperature (typically 25°C), n=1; for Solubility, Acetate buffer pH 4: 100 mM acetate buffer pH 4.0; for Solubility, Acetate buffer pH 5: 100 mM acetate buffer pH 5.0; for Solubility, Histidine buffer pH 6: 100 mM histidine buffer pH 6.0; for Solubility, Histidine buffer pH 7: 100 mM histidine buffer pH 7.0; for Solubility, Phosphate buffer pH 6: 100 mM phosphate buffer pH 6.0; for Solubility, Phosphate buffer pH 7: 100 mM phosphate buffer pH 7.0; for Solubility, Phosphate buffer pH 7.5: 100 mM phosphate buffer pH7.5
In short: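 Read-out: turbidity as absorbance at 325 nm (280 nm also read), single samples, ambient temperature of typically 25°C. Samples were a 1:1 mix of 2 mg/ml stock (water, pH 2.5) with 100 mM acetate, histidine or phosphate buffers spanning pH 4.0–7.5. Cut-off: A325 ≤ 0.02 indicates ≥ 1 mg/ml.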

| pEC50 [1] | Solubility, Acetate buffer pH 4 [2] | Solubility, Acetate buffer pH 5 [2] | Solubility, Histidine buffer pH 6 [2] | Solubility, Histidine buffer pH 7 [2] | Solubility, Phosphate buffer pH 6 [2] | Solubility, Phosphate buffer pH 7 [2] | Solubility, Phosphate buffer pH 7.5 [2] | Compound |
| --- | --- | --- | --- | --- | --- | --- | --- | --- |
| 10.15 | SS (SS indicates solubility ≥ 1mg/ml) | SS (SS indicates solubility ≥ 1mg/ml) | SS (SS indicates solubility ≥ 1mg/ml) | SS (SS indicates solubility ≥ 1mg/ml) | SS (SS indicates solubility ≥ 1mg/ml) | SS (SS indicates solubility ≥ 1mg/ml) | SS (SS indicates solubility ≥ 1mg/ml) | CC[C@H](C)[C@@H](C(=O)N[C@@H](CC(C)C)C(=O)N[C@@H](CO)C(=O)N[C@@H](CO)C(=O)N[C@H](C(=O)N[C@@H](CCC(=O)O)C(=O)N[C@H](C(=O)NCC(=O)N[C@@H](CO)C(=O)N[C@@H](CC(=O)O)C(=O)N[C@H](C(=O)N1CCC[C@H]1C(N)=O)[C@@H](C)O)C(C)C)[C@@H](C)O)N(C)C(=O)[C@H](C)NC(=O)CN(C)C(=O)[C@H](Cc1ccccc1)NC(=O)[C@H](CO)NC(=O)[C@H](CO)NC(=O)[C@H](CCCNC(=N)N)NC(=O)[C@H](Cc1c[nH]cn1)NC(=O)[C@H](CC(C)C)NC(=O)[C@H](Cc1ccccc1)NC(=O)[C@H](CCC(=O)O)NC(=O)[C@H](C)NC(=O)[C@H](CC(C)C)NC(=O)[C@H](CCCNC(=N)N)NC(=O)[C@H](CCC(N)=O)NC(=O)[C@@H](NC(=O)[C@H](C)NC(=O)[C@@H]1CSSC[C@H](NC(=O)[C@H](CCCNC(=N)N)NC(=O)CC[C@H](NC(=O)CCCCCCCCCCCCCCCCCCC(=O)O)C(=O)O)C(=O)N[C@@H](CC(N)=O)C(=O)N[C@@H]([C@@H](C)O)C(=O)N[C@@H](C)C(=O)N[C@@H]([C@@H](C)O)C(=O)N1)[C@@H](C)O [Compound 78, [19CD]-isoGlu-RC()NTATC()ATQRLAEFLHRSSF-Gly(Me)-A-Ile(Me)-LSSTEVGSDTP-NH2] ({C20 diacid-γGlu}-RCNTATCATQRLAEFLHRSSF[Sar]A[NMeI]LSSTEVGSDTP-NH2; disulfide 2-7) |
| 10.00 | SS (SS indicates solubility ≥ 1mg/ml) | SS (SS indicates solubility ≥ 1mg/ml) | SS (SS indicates solubility ≥ 1mg/ml) | SS (SS indicates solubility ≥ 1mg/ml) | SS (SS indicates solubility ≥ 1mg/ml) | SS (SS indicates solubility ≥ 1mg/ml) | SS (SS indicates solubility ≥ 1mg/ml) | CC[C@H](C)[C@@H](C(=O)N[C@@H](CC(C)C)C(=O)N[C@@H](CO)C(=O)N[C@@H](CO)C(=O)N[C@H](C(=O)N[C@@H](CCC(=O)O)C(=O)N[C@H](C(=O)NCC(=O)N[C@@H](CO)C(=O)N[C@@H](CC(=O)O)C(=O)N[C@H](C(=O)N1CCC[C@H]1C(N)=O)[C@@H](C)O)C(C)C)[C@@H](C)O)N(C)C(=O)CN(C)C(=O)[C@H](Cc1ccccc1)NC(=O)[C@H](CO)NC(=O)[C@H](CO)NC(=O)[C@H](CCCNC(=N)N)NC(=O)[C@H](Cc1c[nH]cn1)NC(=O)[C@H](CC(C)C)NC(=O)[C@H](Cc1ccccc1)NC(=O)[C@H](CCC(=O)O)NC(=O)[C@H](C)NC(=O)[C@H](CC(C)C)NC(=O)[C@H](CCCNC(=N)N)NC(=O)[C@H](CCC(N)=O)NC(=O)[C@@H](NC(=O)[C@H](C)NC(=O)[C@@H]1CSSC[C@H](NC(=O)[C@H](CCCNC(=N)N)NC(=O)CC[C@H](NC(=O)CCCCCCCCCCCCCCCCCCC(=O)O)C(=O)O)C(=O)N[C@@H](CC(N)=O)C(=O)N[C@@H]([C@@H](C)O)C(=O)N[C@@H](C)C(=O)N[C@@H]([C@@H](C)O)C(=O)N1)[C@@H](C)O [Compound 79, [19CD]-isoGlu-RC()NTATC()ATQRLAEFLHRSSF-Gly(Me)-Ile(Me)-LSSTEVGSDTP-NH2] ({C20 diacid-γGlu}-RCNTATCATQRLAEFLHRSSF[Sar][NMeI]LSSTEVGSDTP-NH2; disulfide 2-7) |
| 10.21 | SS (SS indicates solubility ≥ 1mg/ml) | SS (SS indicates solubility ≥ 1mg/ml) | II (II indicates solubility ≤ 1 mg/ml) | SS (SS indicates solubility ≥ 1mg/ml) | SS (SS indicates solubility ≥ 1mg/ml) | SS (SS indicates solubility ≥ 1mg/ml) | SS (SS indicates solubility ≥ 1mg/ml) | CC[C@H](C)[C@@H](C(=O)N[C@@H](CC(C)C)C(=O)N[C@@H](CO)C(=O)N[C@@H](CO)C(=O)N[C@H](C(=O)N[C@@H](CC(=O)O)C(=O)N[C@H](C(=O)NCC(=O)N[C@@H](CO)C(=O)N[C@@H](CCC(=O)O)C(=O)N[C@H](C(=O)N1CCC[C@H]1C(N)=O)[C@@H](C)O)C(C)C)[C@@H](C)O)N(C)C(=O)[C@H](C)NC(=O)CN(C)C(=O)[C@H](Cc1ccccc1)NC(=O)[C@H](CO)NC(=O)[C@H](CO)NC(=O)[C@H](CCCNC(=N)N)NC(=O)[C@H](Cc1c[nH]cn1)NC(=O)[C@H](CC(C)C)NC(=O)[C@H](Cc1ccccc1)NC(=O)[C@H](CCC(=O)O)NC(=O)[C@H](C)NC(=O)[C@H](CC(C)C)NC(=O)[C@H](CCCNC(=N)N)NC(=O)[C@H](CCC(N)=O)NC(=O)[C@@H](NC(=O)[C@H](C)NC(=O)[C@@H]1CSSC[C@H](NC(=O)[C@H](CCCNC(=N)N)NC(=O)CC[C@H](NC(=O)CCCCCCCCCCCCCCCCCCC(=O)O)C(=O)O)C(=O)N[C@@H](CC(N)=O)C(=O)N[C@@H]([C@@H](C)O)C(=O)N[C@@H](C)C(=O)N[C@@H]([C@@H](C)O)C(=O)N1)[C@@H](C)O [Compound 80, [19CD]-isoGlu-RC()NTATC()ATQRLAEFLHRSSF-Gly(Me)-A-Ile(Me)-LSSTDVGSETP-NH2] ({C20 diacid-γGlu}-RCNTATCATQRLAEFLHRSSF[Sar]A[NMeI]LSSTDVGSETP-NH2; disulfide 2-7) |
| 10.24 | SS (SS indicates solubility ≥ 1mg/ml) | SS (SS indicates solubility ≥ 1mg/ml) | SS (SS indicates solubility ≥ 1mg/ml) | SS (SS indicates solubility ≥ 1mg/ml) | SS (SS indicates solubility ≥ 1mg/ml) | SS (SS indicates solubility ≥ 1mg/ml) | SS (SS indicates solubility ≥ 1mg/ml) | CC[C@H](C)[C@@H](C(=O)N[C@@H](CC(C)C)C(=O)N[C@@H](CO)C(=O)N[C@@H](CO)C(=O)N[C@H](C(=O)N[C@@H](CC(=O)O)C(=O)N[C@H](C(=O)NCC(=O)N[C@@H](CO)C(=O)N[C@@H](CC(=O)O)C(=O)N[C@H](C(=O)N1CCC[C@H]1C(N)=O)[C@@H](C)O)C(C)C)[C@@H](C)O)N(C)C(=O)[C@H](C)NC(=O)CN(C)C(=O)[C@H](Cc1ccccc1)NC(=O)[C@H](CO)NC(=O)[C@H](CO)NC(=O)[C@H](CCCNC(=N)N)NC(=O)[C@H](Cc1c[nH]cn1)NC(=O)[C@H](CC(C)C)NC(=O)[C@H](Cc1ccccc1)NC(=O)[C@H](CCC(=O)O)NC(=O)[C@H](C)NC(=O)[C@H](CC(C)C)NC(=O)[C@H](CCCNC(=N)N)NC(=O)[C@H](CCC(N)=O)NC(=O)[C@@H](NC(=O)[C@H](C)NC(=O)[C@@H]1CSSC[C@H](NC(=O)[C@H](CCCNC(=N)N)NC(=O)CC[C@H](NC(=O)CCCCCCCCCCCCCCCCCCC(=O)O)C(=O)O)C(=O)N[C@@H](CC(N)=O)C(=O)N[C@@H]([C@@H](C)O)C(=O)N[C@@H](C)C(=O)N[C@@H]([C@@H](C)O)C(=O)N1)[C@@H](C)O [Compound 81, [19CD]-isoGlu-RC()NTATC()ATQRLAEFLHRSSF-Gly(Me)-A-Ile(Me)-LSSTDVGSDTP-NH2] ({C20 diacid-γGlu}-RCNTATCATQRLAEFLHRSSF[Sar]A[NMeI]LSSTDVGSDTP-NH2; disulfide 2-7) |
